# Legend:
# [1] = system: Echinochloa oryzoides (Ard.) Fritsch.; experiment: Preemergence weed control under flooded paddy conditions, ECHORC (Watergrass (Calif.)); format: in vivo; settings: flooded paddy, rated three to four weeks after treatment; for herbicidal effect rating, ECHORC: meaning of each grade not given here
# Cyperus iria = experiment: Preemergence weed control under flooded paddy conditions, CYPIR (Rice Flatsedge); format: in vivo; settings: flooded paddy, rated three to four weeks after treatment; for herbicidal effect rating, CYPIR: meaning of each grade not given here
# [2] = system: Cyperus serotinus, Rottb.; experiment: Preemergence weed control under flooded paddy conditions, CYPSE (Flatsedge); format: in vivo; settings: rated three to four weeks after treatment; for herbicidal effect rating, CYPSE: meaning of each grade not given here
# [3] = system: Monochoria vaginalis, Presl.; experiment: Preemergence weed control under flooded paddy conditions, MOOVA (Monochoria); format: in vivo; settings: flooded paddy, rated three to four weeks after treatment; for herbicidal effect rating, MOOVA: meaning of each grade not given here
# Sagittaria pygmaea, L. = experiment: Preemergence weed control under flooded paddy conditions, SAGPY (Arrowhead (Pygmaea)); format: in vivo; settings: flooded paddy, rated three to four weeks after treatment; for herbicidal effect rating, SAGPY: meaning of each grade not given here
# [4] = system: Oryza sativa, (L.) Tebonnet; experiment: Rice tolerance to post-transplant applications under flooded paddy conditions (Example 187), ORYSAT (Rice, Tebonnet); settings: rated three to four weeks after treatment; for herbicidal effect rating ORYSAT: meaning of each grade not given here
# [5] = 0.0313 kg/ha, preemergence weeds
# [6] = 0.0625 kg/ha, preemergence weeds
# [7] = 0.1250 kg/ha, preemergence weeds
# [8] = 0.2500 kg/ha, preemergence weeds
# [9] = Rate 0.0320 kg/ha, preemergence
# [10] = Rate 0.0620 kg/ha, preemergence
# [11] = Rate 0.1250 kg/ha, preemergence
# [12] = Rate 0.2500 kg/ha, preemergence
smiles,measurement,setting,value
"Cc1ccc(OC2CC(C)OC2=O)c(-c2nsc3ccc(-n4c(=O)cc(C(F)(F)F)n(C)c4=O)cc23)c1 (racemic) [Example 189, 1-Methyl-3-{3-{6-[(tetrahydro-5-methyl-2-oxo-3-furyl)oxy]-m-tolyl}-1,2-benzisothiazol-5-yl}-6-(trifluoromethyl)-2,4(1H,3H)-pyrimidinedione, DL-]","herbicidal effect rating, ECHORC",[1]; [5],0.0
same,"herbicidal effect rating, ECHORC",[1]; [6],0.0
same,"herbicidal effect rating, ECHORC",[1]; [7],0.0
same,"herbicidal effect rating, ECHORC",[1]; [8],0.0
same,"herbicidal effect rating, CYPIR",Cyperus iria; [5],0.0
same,"herbicidal effect rating, CYPIR",Cyperus iria; [6],0.0
same,"herbicidal effect rating, CYPIR",Cyperus iria; [7],0.0
same,"herbicidal effect rating, CYPIR",Cyperus iria; [8],0.0
same,"herbicidal effect rating, CYPSE",[2]; [5],0.0
same,"herbicidal effect rating, CYPSE",[2]; [6],0.0
same,"herbicidal effect rating, CYPSE",[2]; [7],0.0
same,"herbicidal effect rating, CYPSE",[2]; [8],0.0
same,"herbicidal effect rating, MOOVA",[3]; [5],0.0
same,"herbicidal effect rating, MOOVA",[3]; [6],0.0
same,"herbicidal effect rating, MOOVA",[3]; [7],2.0
same,"herbicidal effect rating, MOOVA",[3]; [8],8.0
same,"herbicidal effect rating, SAGPY","Sagittaria pygmaea, L.; [5]",0.0
same,"herbicidal effect rating, SAGPY","Sagittaria pygmaea, L.; [6]",0.0
same,"herbicidal effect rating, SAGPY","Sagittaria pygmaea, L.; [7]",0.0
same,"herbicidal effect rating, SAGPY","Sagittaria pygmaea, L.; [8]",0.0
same,"herbicidal effect rating, ORYSAT (rice tolerance)",[4]; 0.0313 kg/ha,0.0
same,"herbicidal effect rating, ORYSAT (rice tolerance)",[4]; 0.0625 kg/ha,0.0
same,"herbicidal effect rating, ORYSAT (rice tolerance)",[4]; 0.1250 kg/ha,0.0
same,"herbicidal effect rating, ORYSAT (rice tolerance)",[4]; 0.2500 kg/ha,0.0
"COC(=O)c1nsc2cc(F)c(-n3c(=O)cc(C(F)(F)F)n(C)c3=O)cc12 [Example 513, 1,2-Benzisothiazole-3-carboxylic acid, 5-[3,6-dihydro-3-methyl-2,6-dioxo-4-(trifluoromethyl)-1(2H)-pyrimidinyl]-6-fluoro-, methyl ester]",ECHORC herbicidal rating,"[1]; 0.0320 kg/ha, preemergence",0.0
same,ECHORC herbicidal rating,"[1]; 0.0620 kg/ha, preemergence",5.0
same,ECHORC herbicidal rating,"[1]; 0.1250 kg/ha, preemergence",7.0
same,ECHORC herbicidal rating,"[1]; 0.2500 kg/ha, preemergence",8.0
same,CYPIR herbicidal rating,"Cyperus iria; 0.0320 kg/ha, preemergence",4.0
same,CYPIR herbicidal rating,"Cyperus iria; 0.0620 kg/ha, preemergence",4.0
same,CYPIR herbicidal rating,"Cyperus iria; 0.1250 kg/ha, preemergence",6.0
same,CYPIR herbicidal rating,"Cyperus iria; 0.2500 kg/ha, preemergence",9.0
same,CYPSE herbicidal rating,"[2]; 0.0320 kg/ha, preemergence",9.0
same,CYPSE herbicidal rating,"[2]; 0.0620 kg/ha, preemergence",9.0
same,CYPSE herbicidal rating,"[2]; 0.1250 kg/ha, preemergence",9.0
same,CYPSE herbicidal rating,"[2]; 0.2500 kg/ha, preemergence",9.0
same,MOOVA herbicidal rating,"[3]; 0.0320 kg/ha, preemergence",9.0
same,MOOVA herbicidal rating,"[3]; 0.0620 kg/ha, preemergence",9.0
same,MOOVA herbicidal rating,"[3]; 0.1250 kg/ha, preemergence",9.0
same,MOOVA herbicidal rating,"[3]; 0.2500 kg/ha, preemergence",9.0
same,SAGPY herbicidal rating,"Sagittaria pygmaea, L.; 0.0320 kg/ha, preemergence",9.0
same,SAGPY herbicidal rating,"Sagittaria pygmaea, L.; 0.0620 kg/ha, preemergence",9.0
same,SAGPY herbicidal rating,"Sagittaria pygmaea, L.; 0.1250 kg/ha, preemergence",9.0
same,SAGPY herbicidal rating,"Sagittaria pygmaea, L.; 0.2500 kg/ha, preemergence",9.0
same,ORYSAT herbicidal rating (rice tolerance),[4]; 0.0320 kg/ha,9.0
same,ORYSAT herbicidal rating (rice tolerance),[4]; 0.0620 kg/ha,7.0
same,ORYSAT herbicidal rating (rice tolerance),[4]; 0.1250 kg/ha,9.0
same,ORYSAT herbicidal rating (rice tolerance),[4]; 0.2500 kg/ha,9.0
"CC(=O)NCCOC(=O)c1nsc2ccc(-n3c(=O)cc(C(F)(F)F)n(C)c3=O)cc12 [Example 387, 1,2-Benzisothiazole-3-carboxylic acid, 5-[3,6-dihydro-3-methyl-2,6-dioxo-4-(trifluoromethyl)-1(2H)-pyrimidinyl]-, 2-acetamidoethyl ester]","herbicidal effect rating, ECHORC",[1]; [9],0.0
same,"herbicidal effect rating, ECHORC",[1]; [10],0.0
same,"herbicidal effect rating, ECHORC",[1]; [11],0.0
same,"herbicidal effect rating, ECHORC",[1]; [12],3.0
same,"herbicidal effect rating, CYPIR",Cyperus iria; [9],0.0
same,"herbicidal effect rating, CYPIR",Cyperus iria; [10],5.0
same,"herbicidal effect rating, CYPIR",Cyperus iria; [11],6.0
same,"herbicidal effect rating, CYPIR",Cyperus iria; [12],7.0
same,"herbicidal effect rating, CYPSE",[2]; [9],2.0
same,"herbicidal effect rating, CYPSE",[2]; [10],5.0
same,"herbicidal effect rating, CYPSE",[2]; [11],5.0
same,"herbicidal effect rating, CYPSE",[2]; [12],5.0
same,"herbicidal effect rating, MOOVA",[3]; [9],4.0
same,"herbicidal effect rating, MOOVA",[3]; [10],9.0
same,"herbicidal effect rating, MOOVA",[3]; [11],9.0
same,"herbicidal effect rating, MOOVA",[3]; [12],9.0
same,"herbicidal effect rating, SAGPY","Sagittaria pygmaea, L.; [9]",3.0
same,"herbicidal effect rating, SAGPY","Sagittaria pygmaea, L.; [10]",4.0
same,"herbicidal effect rating, SAGPY","Sagittaria pygmaea, L.; [11]",5.0
same,"herbicidal effect rating, SAGPY","Sagittaria pygmaea, L.; [12]",6.0
same,herbicidal effect rating ORYSAT,[4]; Rate 0.0320 kg/ha,0.0
same,herbicidal effect rating ORYSAT,[4]; Rate 0.0620 kg/ha,0.0
same,herbicidal effect rating ORYSAT,[4]; Rate 0.1250 kg/ha,2.0
same,herbicidal effect rating ORYSAT,[4]; Rate 0.2500 kg/ha,2.0
"COC(=O)COc1ccc(C)cc1-c1nsc2ccc(-n3c(=O)cc(C)n(C)c3=O)cc12 [Example 38, Methyl {{2-[5-(3,6-dihydro-3,4-dimethyl-2,6-dioxo-1(2H)-pyrimidinyl)-1,2-benzisothiazol-3-yl]-p-tolyl}oxy}acetate]","herbicidal effect rating, ECHORC","[1]; 0.0313 kg/ha, preemergence",0.0
same,"herbicidal effect rating, ECHORC","[1]; 0.0625 kg/ha, preemergence",0.0
same,"herbicidal effect rating, ECHORC","[1]; 0.1250 kg/ha, preemergence",1.0
same,"herbicidal effect rating, ECHORC","[1]; 0.2500 kg/ha, preemergence",2.0
same,"herbicidal effect rating, CYPIR","Cyperus iria; 0.0313 kg/ha, preemergence",0.0
same,"herbicidal effect rating, CYPIR","Cyperus iria; 0.0625 kg/ha, preemergence",0.0
same,"herbicidal effect rating, CYPIR","Cyperus iria; 0.1250 kg/ha, preemergence",0.0
same,"herbicidal effect rating, CYPIR","Cyperus iria; 0.2500 kg/ha, preemergence",0.0
same,"herbicidal effect rating, CYPSE","[2]; 0.0313 kg/ha, preemergence",0.0
same,"herbicidal effect rating, CYPSE","[2]; 0.0625 kg/ha, preemergence",0.0
same,"herbicidal effect rating, CYPSE","[2]; 0.1250 kg/ha, preemergence",0.0
same,"herbicidal effect rating, CYPSE","[2]; 0.2500 kg/ha, preemergence",0.0
same,"herbicidal effect rating, MOOVA","[3]; 0.0313 kg/ha, preemergence",0.0
same,"herbicidal effect rating, MOOVA","[3]; 0.0625 kg/ha, preemergence",0.0
same,"herbicidal effect rating, MOOVA","[3]; 0.1250 kg/ha, preemergence",0.0
same,"herbicidal effect rating, MOOVA","[3]; 0.2500 kg/ha, preemergence",0.0
same,"herbicidal effect rating, SAGPY","Sagittaria pygmaea, L.; 0.0313 kg/ha, preemergence",0.0
same,"herbicidal effect rating, SAGPY","Sagittaria pygmaea, L.; 0.0625 kg/ha, preemergence",0.0
same,"herbicidal effect rating, SAGPY","Sagittaria pygmaea, L.; 0.1250 kg/ha, preemergence",0.0
same,"herbicidal effect rating, SAGPY","Sagittaria pygmaea, L.; 0.2500 kg/ha, preemergence",0.0
same,"herbicidal effect rating, ORYSAT (rice tolerance)",[4]; 0.0313 kg/ha,0.0
same,"herbicidal effect rating, ORYSAT (rice tolerance)",[4]; 0.0625 kg/ha,0.0
same,"herbicidal effect rating, ORYSAT (rice tolerance)",[4]; 0.1250 kg/ha,0.0
same,"herbicidal effect rating, ORYSAT (rice tolerance)",[4]; 0.2500 kg/ha,0.0
"Cc1ccc(OCC(=O)NS(=O)(=O)c2sc(C)nc2C)c(-c2nsc3ccc(-n4c(=O)cc(C(F)(F)F)n(C)c4=O)cc23)c1 [Example 288, Acetamide, 2-{{2-{5-[3,6-dihydro-3-methyl-2,6-dioxo-4-(trifluoromethyl)-1(2H)-pyrimidinyl]-1,2-benzisothiazol-3-yl}-p-tolyl}oxy}-N-[(2,4-dimethylthiazol-5-yl)sulfonyl]-]",ECHORC herbicidal effect rating,[1]; [9],0.0
same,ECHORC herbicidal effect rating,[1]; [10],0.0
same,ECHORC herbicidal effect rating,[1]; [11],4.0
same,ECHORC herbicidal effect rating,[1]; [12],5.0
same,CYPIR herbicidal effect rating,Cyperus iria; [9],0.0
same,CYPIR herbicidal effect rating,Cyperus iria; [10],0.0
same,CYPIR herbicidal effect rating,Cyperus iria; [11],4.0
same,CYPIR herbicidal effect rating,Cyperus iria; [12],6.0
same,CYPSE herbicidal effect rating,[2]; [9],0.0
same,CYPSE herbicidal effect rating,[2]; [10],0.0
same,CYPSE herbicidal effect rating,[2]; [11],0.0
same,CYPSE herbicidal effect rating,[2]; [12],0.0
same,MOOVA herbicidal effect rating,[3]; [9],0.0
same,MOOVA herbicidal effect rating,[3]; [10],0.0
same,MOOVA herbicidal effect rating,[3]; [11],3.0
same,MOOVA herbicidal effect rating,[3]; [12],6.0
same,SAGPY herbicidal effect rating,"Sagittaria pygmaea, L.; [9]",0.0
same,SAGPY herbicidal effect rating,"Sagittaria pygmaea, L.; [10]",0.0
same,SAGPY herbicidal effect rating,"Sagittaria pygmaea, L.; [11]",0.0
same,SAGPY herbicidal effect rating,"Sagittaria pygmaea, L.; [12]",0.0
same,ORYSAT herbicidal effect rating,[4]; Rate 0.0320 kg/ha,0.0
same,ORYSAT herbicidal effect rating,[4]; Rate 0.0620 kg/ha,0.0
same,ORYSAT herbicidal effect rating,[4]; Rate 0.1250 kg/ha,1.0
same,ORYSAT herbicidal effect rating,[4]; Rate 0.2500 kg/ha,2.0
"COC(=O)C(C)Oc1ccc(-c2nsc3ccc(-n4c(=O)cc(C(F)(F)F)n(C)c4=O)cc23)cc1 (centres unmarked) [Example 258, Propionic acid, 2-{p-{5-[3,6-dihydro-3-methyl-2,6-dioxo-4-(trifluoromethyl)-1(2H)-pyrimidinyl]-1,2-benzisothiazol-3-yl}phenoxy}-, methyl ester]",ECHORC herbicidal effect rating,[1]; [9],0.0
same,ECHORC herbicidal effect rating,[1]; [10],0.0
same,ECHORC herbicidal effect rating,[1]; [11],0.0
same,ECHORC herbicidal effect rating,[1]; [12],0.0
same,CYPIR herbicidal effect rating,Cyperus iria; [9],0.0
same,CYPIR herbicidal effect rating,Cyperus iria; [10],2.0
same,CYPIR herbicidal effect rating,Cyperus iria; [11],7.0
same,CYPIR herbicidal effect rating,Cyperus iria; [12],8.0
same,CYPSE herbicidal effect rating,[2]; [9],0.0
same,CYPSE herbicidal effect rating,[2]; [10],0.0
same,CYPSE herbicidal effect rating,[2]; [11],0.0
same,MOOVA herbicidal effect rating,[3]; [9],9.0
same,MOOVA herbicidal effect rating,[3]; [10],9.0
same,MOOVA herbicidal effect rating,[3]; [11],9.0
same,MOOVA herbicidal effect rating,[3]; [12],9.0
same,SAGPY herbicidal effect rating,"Sagittaria pygmaea, L.; [9]",0.0
same,SAGPY herbicidal effect rating,"Sagittaria pygmaea, L.; [10]",0.0
same,SAGPY herbicidal effect rating,"Sagittaria pygmaea, L.; [11]",0.0
same,SAGPY herbicidal effect rating,"Sagittaria pygmaea, L.; [12]",0.0
same,ORYSAT herbicidal effect rating,[4]; Rate 0.0320 kg/ha,2.0
same,ORYSAT herbicidal effect rating,[4]; Rate 0.0620 kg/ha,2.0
same,ORYSAT herbicidal effect rating,[4]; Rate 0.1250 kg/ha,3.0
same,ORYSAT herbicidal effect rating,[4]; Rate 0.2500 kg/ha,4.0

# Source: patent EP0908457B1, “3-(1,2-benzisothiazol- and isoxazol-5-Y1)-2,4(1H,3H)-pyrimidinedione or thione and 3-(1,2-benzisothiazol- and isoxazol-5-y1)-4(3H)-pyrimidinone or thione herbicidal agents” (BASF AKTIENGESELLSCHAFT, priority 1997, dated 1999)
